This passage reports IC50 results from patent publication US9580416B2, “Inhibitors of Bruton's tyrosine kinase” (PHARMACYCLICS LLC, priority 2014, dated 2017).

What all share (format): biochemical
The target in one assay is Lck (Homo sapiens, UniProt P06239). Briefly: Lck kinase activity, TR-FRET assay. The conditions noted are these: read-out: LCK (IC50). In short, it runs like this:
(§1)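 Enzyme (Btk 0.5 nM; Lck 6 nM) reacted 1 h with inhibitor, ATP at Km and biotin-peptide substrate in pH 7.4 buffer, 10% DMSO. Phosphopeptide detected by Eu-p-Tyr100 antibody plus streptavidin-APC (665/615 nm). IC50 calculated from fitted Ki(app) via ATP/Km correction plus half total enzyme.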

In a further assay the target is Btk (Homo sapiens, UniProt Q06187). Kind of assay: Btk kinase activity, TR-FRET assay. Conditions: read-out: Btk (IC50). In short, it runs like this:
as §1

In a further assay the target is T1, JAK3 (Homo sapiens, UniProt P52333).
T1 sequence (P52333 1-1124): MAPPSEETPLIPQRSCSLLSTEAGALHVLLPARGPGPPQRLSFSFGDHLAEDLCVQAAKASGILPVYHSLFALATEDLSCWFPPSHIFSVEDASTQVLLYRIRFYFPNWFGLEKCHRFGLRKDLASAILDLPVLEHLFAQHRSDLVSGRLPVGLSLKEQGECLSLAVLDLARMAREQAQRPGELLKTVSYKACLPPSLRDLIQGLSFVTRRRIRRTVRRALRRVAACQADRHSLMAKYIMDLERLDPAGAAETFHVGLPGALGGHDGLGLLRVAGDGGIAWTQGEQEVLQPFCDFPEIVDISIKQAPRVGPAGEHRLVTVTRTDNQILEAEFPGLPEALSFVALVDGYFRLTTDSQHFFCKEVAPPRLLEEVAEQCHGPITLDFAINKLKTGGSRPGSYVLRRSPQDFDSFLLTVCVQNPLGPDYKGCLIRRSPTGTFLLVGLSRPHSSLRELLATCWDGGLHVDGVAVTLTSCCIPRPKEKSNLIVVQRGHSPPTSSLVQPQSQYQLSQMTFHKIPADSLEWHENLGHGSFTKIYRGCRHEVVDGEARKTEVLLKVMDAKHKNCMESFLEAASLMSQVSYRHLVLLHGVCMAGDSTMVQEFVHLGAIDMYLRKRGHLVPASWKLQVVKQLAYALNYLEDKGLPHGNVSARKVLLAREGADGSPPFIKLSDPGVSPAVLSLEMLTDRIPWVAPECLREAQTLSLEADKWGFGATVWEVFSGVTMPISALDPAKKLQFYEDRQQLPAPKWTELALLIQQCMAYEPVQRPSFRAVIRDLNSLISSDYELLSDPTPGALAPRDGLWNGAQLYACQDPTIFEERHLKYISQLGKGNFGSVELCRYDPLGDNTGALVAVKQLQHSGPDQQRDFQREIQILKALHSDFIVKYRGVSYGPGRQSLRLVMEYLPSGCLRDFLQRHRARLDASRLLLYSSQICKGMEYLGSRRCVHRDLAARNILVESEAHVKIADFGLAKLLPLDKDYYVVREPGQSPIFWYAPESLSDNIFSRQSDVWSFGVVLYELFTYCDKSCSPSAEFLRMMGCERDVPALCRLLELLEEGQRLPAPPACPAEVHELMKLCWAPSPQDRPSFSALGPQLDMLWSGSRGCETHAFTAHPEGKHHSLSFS
Briefly: Inhibition of a panel of kinases, in vitro HotSpot kinase assay: JAK3. The procedure: (§2) The degree of inhibition of a panel of kinases is determined using the in vitro HotSpot kinase assay (purified enzymes, ^33P-ATP, an appropriate substrate and 1 uM ATP).

Another assay has as its target EGFR (Homo sapiens, UniProt P00533). Briefly: Inhibition of a panel of kinases, in vitro HotSpot kinase assay: EGFR. The method, then: as §2

Sequence of EGFR (P00533 25-1210): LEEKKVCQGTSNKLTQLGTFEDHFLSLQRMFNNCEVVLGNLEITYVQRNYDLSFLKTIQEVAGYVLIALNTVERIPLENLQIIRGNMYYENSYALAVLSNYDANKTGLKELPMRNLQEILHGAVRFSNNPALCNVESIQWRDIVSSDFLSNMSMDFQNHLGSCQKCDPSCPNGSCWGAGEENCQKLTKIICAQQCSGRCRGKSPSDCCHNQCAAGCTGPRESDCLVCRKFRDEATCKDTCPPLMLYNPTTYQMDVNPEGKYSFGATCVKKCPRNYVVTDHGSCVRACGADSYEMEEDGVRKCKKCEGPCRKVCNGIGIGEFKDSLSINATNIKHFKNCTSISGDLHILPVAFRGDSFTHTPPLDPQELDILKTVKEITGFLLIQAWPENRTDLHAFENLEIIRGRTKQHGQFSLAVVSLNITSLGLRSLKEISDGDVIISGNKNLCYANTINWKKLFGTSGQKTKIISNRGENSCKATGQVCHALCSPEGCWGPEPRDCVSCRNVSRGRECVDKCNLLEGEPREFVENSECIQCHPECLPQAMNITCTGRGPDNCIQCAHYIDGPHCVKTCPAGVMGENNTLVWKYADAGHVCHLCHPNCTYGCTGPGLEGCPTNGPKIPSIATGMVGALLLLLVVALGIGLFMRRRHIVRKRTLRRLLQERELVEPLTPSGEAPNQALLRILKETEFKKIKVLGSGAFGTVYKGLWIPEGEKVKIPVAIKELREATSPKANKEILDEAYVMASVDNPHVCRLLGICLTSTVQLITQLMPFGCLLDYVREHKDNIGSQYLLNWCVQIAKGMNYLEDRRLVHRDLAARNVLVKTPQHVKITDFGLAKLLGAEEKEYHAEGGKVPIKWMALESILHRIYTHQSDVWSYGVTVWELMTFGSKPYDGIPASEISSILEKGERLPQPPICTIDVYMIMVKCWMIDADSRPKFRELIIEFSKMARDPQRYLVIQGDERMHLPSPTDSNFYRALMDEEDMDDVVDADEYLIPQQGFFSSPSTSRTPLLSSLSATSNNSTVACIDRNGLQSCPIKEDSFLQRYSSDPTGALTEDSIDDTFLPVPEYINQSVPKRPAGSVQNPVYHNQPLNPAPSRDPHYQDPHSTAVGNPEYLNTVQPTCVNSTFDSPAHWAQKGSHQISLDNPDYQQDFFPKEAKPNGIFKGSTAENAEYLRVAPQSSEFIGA
Sequence of Lck (P06239 whole entry, species assumed): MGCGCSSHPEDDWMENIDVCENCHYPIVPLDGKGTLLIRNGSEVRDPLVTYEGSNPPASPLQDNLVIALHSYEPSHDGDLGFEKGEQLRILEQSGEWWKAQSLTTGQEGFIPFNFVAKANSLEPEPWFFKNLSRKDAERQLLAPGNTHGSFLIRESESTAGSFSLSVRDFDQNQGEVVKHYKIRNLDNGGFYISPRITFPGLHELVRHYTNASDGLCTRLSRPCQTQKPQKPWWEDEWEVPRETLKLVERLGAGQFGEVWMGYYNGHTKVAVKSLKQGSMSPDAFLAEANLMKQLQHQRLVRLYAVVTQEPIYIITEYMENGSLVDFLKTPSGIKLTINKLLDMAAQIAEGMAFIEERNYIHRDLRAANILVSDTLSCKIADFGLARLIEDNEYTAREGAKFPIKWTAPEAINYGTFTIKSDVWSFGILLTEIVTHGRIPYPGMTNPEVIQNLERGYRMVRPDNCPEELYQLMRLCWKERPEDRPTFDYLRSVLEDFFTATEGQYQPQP
Sequence of Btk (Q06187 whole entry): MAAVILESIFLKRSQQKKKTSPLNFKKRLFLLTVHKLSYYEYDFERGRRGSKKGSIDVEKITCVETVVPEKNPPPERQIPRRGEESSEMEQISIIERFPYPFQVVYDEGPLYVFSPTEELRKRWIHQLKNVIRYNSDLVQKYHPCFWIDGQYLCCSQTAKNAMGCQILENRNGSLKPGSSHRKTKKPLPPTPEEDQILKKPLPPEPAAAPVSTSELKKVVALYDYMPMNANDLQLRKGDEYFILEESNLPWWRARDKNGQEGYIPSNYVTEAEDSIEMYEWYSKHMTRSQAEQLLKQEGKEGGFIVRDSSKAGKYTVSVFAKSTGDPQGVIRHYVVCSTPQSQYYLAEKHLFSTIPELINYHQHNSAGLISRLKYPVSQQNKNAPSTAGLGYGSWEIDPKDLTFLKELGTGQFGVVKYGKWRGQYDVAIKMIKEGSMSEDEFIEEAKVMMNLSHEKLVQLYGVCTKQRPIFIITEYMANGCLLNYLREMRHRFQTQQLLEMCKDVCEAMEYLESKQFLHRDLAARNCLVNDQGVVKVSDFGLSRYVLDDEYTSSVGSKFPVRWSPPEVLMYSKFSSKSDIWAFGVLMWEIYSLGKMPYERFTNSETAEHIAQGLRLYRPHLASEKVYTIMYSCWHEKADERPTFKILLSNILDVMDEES

`CCC(=O)N1CCC[C@@H](Nc2n[nH]c3nccc(Oc4ccc(-c5nc6cccc(C)c6o5)cc4)c23)C1` [compound 219, 1-[(3R)-3-({4-[4-(7-methyl-1,3-benzoxazol-2-yl)phenoxy]-1H-pyrazolo[3,4-b]pyridin-3-yl}amino)piperidin-1-yl]propan-1-one]: the IC50 at Lck, on Btk, against JAK3 and against EGFR was over 10000 nM each time.
Take `Cc1cc(NC(=O)c2cccc(Nc3ccnc4[nH]nc(N[C@@H]5CCCN(C(=O)c6ccc(F)cc6)C5)c34)c2)ccc1C(C)C` [compound 130, 3-[(3-{[(3R)-1-(4-fluorobenzoyl)piperidin-3-yl]amino}-1H-pyrazolo[3,4-b]pyridin-4-yl)amino]-N-[3-methyl-4-(propan-2-yl)phenyl]benzamide]: the 50% inhibitory concentration (IC50) on Lck is over 10000 nM; at Btk, 100 to 1000 nM; on JAK3 it was over 10000 nM.
On to `Cc1ccnc(NC(=O)c2ccc(Oc3ccnc4[nH]nc(N[C@@H]5CCCN(C(=O)C6(C)COC6)C5)c34)cc2)c1` [compound 86, 4-[(3-{[(3R)-1-(3-methyloxetane-3-carbonyl)piperidin-3-yl]amino}-1H-pyrazolo[3,4-b]pyridin-4-yl)oxy]-N-(4-methylpyridin-2-yl)benzamide], for which the results for the IC50 on Btk and at JAK3 were under 100 nM and over 10000 nM, respectively.
With `COc1ccc(C(=O)N2CCC[C@@H](Nc3n[nH]c4nccc(Oc5ccc(C(=O)Nc6cc(C)ccn6)cc5)c34)C2)cc1` [compound 246, (R)-4-(3-(1-(4-methoxybenzoyl)piperidin-3-ylamino)-1H-pyrazolo[3,4-b]pyridin-4-yloxy)-N-(4-methylpyridin-2-yl)benzamide], the IC50 at Lck was 1000 to 10000 nM; on Btk it was under 100 nM; against JAK3, over 10000 nM.
`CCC(=O)N1CC[C@@H](Nc2n[nH]c3nccc(Oc4ccc(C(=O)Nc5ncc(C)s5)cc4)c23)C1` [compound 72, N-(5-methyl-1,3-thiazol-2-yl)-4-[(3-{[(3R)-1-propanoylpyrrolidin-3-yl]amino}-1H-pyrazolo[3,4-b]pyridin-4-yl)oxy]benzamide] showed an IC50 against JAK3 of 1000 to 10000 nM.
As to `Cc1ccnc(NC(=O)c2ccc(Oc3ccnc4[nH]nc(N[C@@H]5CCCN(C(=O)c6nccs6)C5)c34)cc2)c1` [compound 241, (R)—N-(4-methylpyridin-2-yl)-4-(3-(1-(thiazole-2-carbonyl)piperidin-3-ylamino)-1H-pyrazolo[3,4-b]pyridin-4-yloxy)benzamide], the IC50 is 100 to 1000 nM at Lck, under 100 nM at Btk and over 10000 nM at JAK3.
As to `CCNC(=O)N1CCC[C@@H](Nc2n[nH]c3nccc(Oc4ccc(Oc5ccccc5)cc4C)c23)C1` [compound 235, (3R)-N-ethyl-3-{[4-(2-methyl-4-phenoxyphenoxy)-1H-pyrazolo[3,4-b]pyridin-3-yl]amino}piperidine-1-carboxamide], the IC50 at Btk was under 100 nM; against JAK3, over 10000 nM; against EGFR, 1000 to 10000 nM.
`Cc1ccnc(NC(=O)c2ccc(Oc3ccnc4[nH]nc(N[C@@H]5CCCN(C(=O)c6ccccc6F)C5)c34)cc2)c1` [compound 248, (R)-4-(3-(1-(2-fluorobenzoyl)piperidin-3-ylamino)-1H-pyrazolo[3,4-b]pyridin-4-yloxy)-N-(4-methylpyridin-2-yl)benzamide]: the IC50 is 1000 to 10000 nM at Lck, under 100 nM on Btk and over 10000 nM at JAK3.
As to `Cc1ccnc(NC(=O)c2ccc(Oc3ccnc4[nH]nc(N[C@@H]5CCCN(C(=O)c6cccc(F)c6)C5)c34)cc2)c1` [compound 247, (R)-4-(3-(1-(3-fluorobenzoyl)piperidin-3-ylamino)-1H-pyrazolo[3,4-b]pyridin-4-yloxy)-N-(4-methylpyridin-2-yl)benzamide], the IC50 was 1000 to 10000 nM at Lck, under 100 nM at Btk and over 10000 nM at JAK3.
Taken in the same sequence, the figures for `C=CC(=O)N1CCC[C@@H](Nc2n[nH]c3nccc(Nc4cccc(C(=O)Nc5ccc(C(C)C)c(C)c5)c4)c23)C1` [compound 129, N-[3-methyl-4-(propan-2-yl)phenyl]-3-[(3-{[(3R)-1-(prop-2-enoyl)piperidin-3-yl]amino}-1H-pyrazolo[3,4-b]pyridin-4-yl)amino]benzamide] were 1000 to 10000 nM, under 100 nM and under 100 nM.
Taken in the same sequence, the figures for `Cc1ccc(C(=O)N2CCC[C@@H](Nc3n[nH]c4nccc(Oc5ccc(C(=O)Nc6cc(C)ccn6)cc5)c34)C2)cc1` [compound 245, (R)-4-(3-(1-(4-methylbenzoyl)piperidin-3-ylamino)-1H-pyrazolo[3,4-b]pyridin-4-yloxy)-N-(4-methylpyridin-2-yl)benzamide] were 1000 to 10000 nM, under 100 nM and over 10000 nM.
Taken in the same sequence, the figures for `Cc1ccnc(NC(=O)c2ccc(Oc3ccnc4[nH]nc(N[C@@H]5CCCN(C(=O)c6ccc(F)cc6)C5)c34)cc2)c1` [compound 243, (R)-4-(3-(1-(4-fluorobenzoyl)piperidin-3-ylamino)-1H-pyrazolo[3,4-b]pyridin-4-yloxy)-N-(4-methylpyridin-2-yl)benzamide] were 1000 to 10000 nM, under 100 nM and over 10000 nM.
`Cc1cc(NC(=O)c2cccc(Nc3ccnc4[nH]nc(N[C@@H]5CCCN(C(=O)C6CC6)C5)c34)c2)ccc1C(C)C` [compound 127, 3-[(3-{[(3R)-1-cyclopropanecarbonylpiperidin-3-yl]amino}-1H-pyrazolo[3,4-b]pyridin-4-yl)amino]-N-[3-methyl-4-(propan-2-yl)phenyl]benzamide]: the IC50 is 1000 to 10000 nM on Lck, 100 to 1000 nM on Btk and over 10000 nM at JAK3.
Taken in the same sequence, the figures for `Cc1ccnc(NC(=O)c2ccc(Oc3ccnc4[nH]nc(N[C@@H]5CCCN(C(=O)c6ncc[nH]6)C5)c34)cc2)c1` [compound 242, (R)-4-(3-(1-(1H-imidazole-2-carbonyl)piperidin-3-ylamino)-1H-pyrazolo[3,4-b]pyridin-4-yloxy)-N-(4-methylpyridin-2-yl)benzamide] were 100 to 1000 nM, under 100 nM and over 10000 nM.
On to `COCCNc1n[nH]c2nccc(Oc3ccc(C(=O)Nc4cc(C(F)(F)F)ccn4)cc3)c12` [compound 236, 4-({3-[(2-methoxyethyl)amino]-1H-pyrazolo[3,4-b]pyridin-4-yl}oxy)-N-[4-(trifluoromethyl)pyridin-2-yl]benzamide], for which the values for the IC50 at Btk, at JAK3 and on EGFR were 100 to 1000 nM, over 10000 nM and 1000 to 10000 nM, respectively.
`CC(=O)N1CCC[C@@H](Nc2n[nH]c3nccc(Nc4cccc(C(=O)Nc5ccc(C(C)C)c(C)c5)c4)c23)C1` [compound 131, 3-[(3-{[(3R)-1-acetylpiperidin-3-yl]amino}-1H-pyrazolo[3,4-b]pyridin-4-yl)amino]-N-[3-methyl-4-(propan-2-yl)phenyl]benzamide]: the IC50 at Lck is 1000 to 10000 nM; on Btk it was 100 to 1000 nM; on JAK3 it was over 10000 nM.
Taken in the same sequence, the figures for `Cc1ccnc(NC(=O)c2ccc(Oc3ccnc4[nH]nc(N[C@@H]5CCCN(C(=O)c6ccc(Cl)cc6)C5)c34)cc2)c1` [compound 244, (R)-4-(3-(1-(4-chlorobenzoyl)piperidin-3-ylamino)-1H-pyrazolo[3,4-b]pyridin-4-yloxy)-N-(4-methylpyridin-2-yl)benzamide] were 1000 to 10000 nM, under 100 nM and over 10000 nM.
Taken in the same sequence, the figures for `Cc1ccnc(NC(=O)c2ccc(Oc3ccnc4[nH]nc(N[C@@H]5CCCN(C(=O)c6ncco6)C5)c34)cc2)c1` [compound 240, (R)—N-(4-methylpyridin-2-yl)-4-(3-(1-(oxazole-2-carbonyl)piperidin-3-ylamino)-1H-pyrazolo[3,4-b]pyridin-4-yloxy)benzamide] were 100 to 1000 nM, under 100 nM and over 10000 nM.
